Data taken from PMC7368294 (Proceedings of the National Academy of Sciences of the …, 2020).
Like-named read-outs stand apart in the source and are kept apart here.

Target: T1, Amα1/Amα8/Amβ1 nAChR (Apis mellifera, UniProt A0A7M7MMZ9+A0A8U0WQ70+A0A8U0WQC0)
T1 sequence (A0A7M7MMZ9 44-627): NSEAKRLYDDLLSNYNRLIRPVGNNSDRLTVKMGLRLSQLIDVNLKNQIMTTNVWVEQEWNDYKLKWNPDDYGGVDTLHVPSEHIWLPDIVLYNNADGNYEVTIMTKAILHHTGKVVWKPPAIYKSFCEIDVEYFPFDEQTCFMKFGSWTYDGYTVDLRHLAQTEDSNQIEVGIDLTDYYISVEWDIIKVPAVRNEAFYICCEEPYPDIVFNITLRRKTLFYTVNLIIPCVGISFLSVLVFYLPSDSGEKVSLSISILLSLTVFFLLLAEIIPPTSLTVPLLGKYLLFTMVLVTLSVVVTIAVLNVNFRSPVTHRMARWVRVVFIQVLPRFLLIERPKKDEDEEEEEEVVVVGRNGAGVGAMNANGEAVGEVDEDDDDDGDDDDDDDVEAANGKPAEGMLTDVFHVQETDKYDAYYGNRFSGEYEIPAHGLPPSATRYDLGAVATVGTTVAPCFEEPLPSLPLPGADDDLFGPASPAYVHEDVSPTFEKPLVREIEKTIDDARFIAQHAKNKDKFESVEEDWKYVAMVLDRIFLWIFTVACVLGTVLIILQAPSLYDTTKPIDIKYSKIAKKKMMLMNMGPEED
T1 sequence (A0A8U0WQ70 25-537): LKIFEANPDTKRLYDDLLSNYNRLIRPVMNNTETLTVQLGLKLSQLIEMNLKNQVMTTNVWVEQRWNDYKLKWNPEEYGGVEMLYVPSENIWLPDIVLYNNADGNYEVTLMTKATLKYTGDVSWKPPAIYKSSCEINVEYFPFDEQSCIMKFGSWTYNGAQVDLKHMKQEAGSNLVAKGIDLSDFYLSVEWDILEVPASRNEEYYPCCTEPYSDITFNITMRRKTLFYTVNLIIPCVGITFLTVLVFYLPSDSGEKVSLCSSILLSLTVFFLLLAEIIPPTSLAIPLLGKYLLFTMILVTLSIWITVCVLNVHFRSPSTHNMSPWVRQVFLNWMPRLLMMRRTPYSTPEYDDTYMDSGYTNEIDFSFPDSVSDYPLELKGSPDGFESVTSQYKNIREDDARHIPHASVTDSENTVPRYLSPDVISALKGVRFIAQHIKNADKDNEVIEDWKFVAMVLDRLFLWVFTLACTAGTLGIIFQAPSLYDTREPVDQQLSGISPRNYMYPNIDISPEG
T1 sequence (A0A8U0WQC0 25-520): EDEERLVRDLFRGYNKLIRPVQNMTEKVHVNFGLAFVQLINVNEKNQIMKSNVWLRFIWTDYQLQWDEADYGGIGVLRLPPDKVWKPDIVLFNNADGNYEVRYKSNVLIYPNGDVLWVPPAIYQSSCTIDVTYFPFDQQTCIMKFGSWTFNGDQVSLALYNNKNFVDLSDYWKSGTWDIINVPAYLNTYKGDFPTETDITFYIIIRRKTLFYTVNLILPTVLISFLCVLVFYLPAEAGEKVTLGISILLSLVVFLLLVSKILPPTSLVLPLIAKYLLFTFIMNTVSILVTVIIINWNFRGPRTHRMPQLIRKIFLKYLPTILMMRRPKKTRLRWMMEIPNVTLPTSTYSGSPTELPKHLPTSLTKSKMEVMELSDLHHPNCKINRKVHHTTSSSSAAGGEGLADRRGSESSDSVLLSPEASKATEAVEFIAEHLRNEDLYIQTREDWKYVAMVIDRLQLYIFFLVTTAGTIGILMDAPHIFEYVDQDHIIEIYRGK
Assay: cell-based
Design: species or system Xenopus laevis oocytes
Settings: Oocyte

With `CN/C(=N\[N+](=O)[O-])NCc1cnc(Cl)s1` [clothianidin] the Emax (read-out: Clothianidin / Imax) was 78.8 ± 2%.

For `N#C/N=C1\SCCN1Cc1ccc(Cl)nc1` [thiacloprid], the Emax (read-out: Thiacloprid / Imax) was 5.8 ± 0.6%.

`O=[N+]([O-])NC1=NCCN1Cc1ccc(Cl)nc1` [imidacloprid] showed an Emax (read-out: Imidacloprid / Imax) of 7.5 ± 0.4%.
